13 compounds from PMC10813862, “Gαi2 Protein Inhibition Blocks Chemotherapy- and Anti-Androgen-Induced Prostate Cancer Cell Migration” (Cancers, 2024) can be followed below.

In data set [1] the test system is Vero cells. Briefly: MTS viability, Vero cells. In kind it is cell-based. To be noted: Chlorocebus sabaeus, 72 h, n=3. The procedure: (§1) Figure S1A. Effects of compounds 3- 7, 10, 12, 13 and 15 on the viability of LNCaP,
(§2) MDA-MD-231, MCF-7 and Vero cells. The cells are incubated with the drugs for 72 h
(§3) and viability evaluated with MTS. NI = IC50 greater than 100 μM. n=3
(§4) Compound LNCaP (µM) MDA-MB-231 (µM) MCF-7 (µM) Vero (µM)

The test system of data set [2] is LNCaP cells. Briefly: MTS viability, LNCaP cells. To be noted: Homo sapiens, 72 h, n=3. Type of data set: cell-based. The procedure:
as §1, §2, §3, §4

Data set [3] concerns MDA-MB-231 cells. The experiment in a line: MTS viability, MDA-MB-231 cells. In kind it is cell-based. Conditions: Homo sapiens, 72 h, n=3. The procedure:
as §1, §2, §3, §4

Data set [4] has as its system MCF-7 cells. The experiment in a line: MTS viability, MCF-7 cells. Type of data set: cell-based. To be noted: Homo sapiens, MCF7, 72 h, n=3. The procedure: as §1, §2, §3, §4
In data set [5] the test system is PC3 cells. Briefly: transwell migration assay, PC3 cells. Type of data set: cell-based, human. Conditions: for effect on PC3 cell migration (migration index): compound alone, concentration range 0.1 to 100 μM, 5 h, compared with 14; for PC3 cell migration in combination with SAHA or docetaxel: Gαi2 inhibitor at 20 μM, in combination with either SAHA or docetaxel. The method, then: (§5) In vitro transwell migration assays were conducted as described previously. Briefly, the outside of the transwell inserts (BD Biosciences, San Jose, CA, USA) were coated with 50 µL of rat tail collagen (50 μg/mL; BD Biosciences, San Jose, CA, USA) overnight at 4 °C. The next day, 50 μL of the aforementioned rat tail collagen was added for 1 h at room temperature into the transwell inserts to coat the inside of the membranes. DU145, PC3 and LNCaP cells were trypsinized and suspended at the appropriate density (3 × 10^5 cells/insert for DU145 and PC3, and 5 × 10^5 cells/insert for LNCaP) in MEM or RPMI containing 0.2% BSA (Sigma-Aldrich, St. Louis, MO, USA). Chemoattractant solution, used as the positive control, was made by diluting the epidermal growth factor (EGF) (10 ng/mL) into MEM (PC3 and DU145) or RPMI (LNCaP) supplemented with 0.2% BSA. Media containing 0.2% BSA served as a control. Control and EGF solutions (400 μL) were added into the wells of a 24-well plate. Aliquots of 100 μL of cell suspensions, treated with or without the different compounds at several concentrations, were loaded into the transwell inserts, and the plates were incubated at 37 °C for 5 h (DU145 and PC3) or 24 h (LNCaP). The cells inside the transwell inserts were removed by cotton swabs, and the cleaned inserts were fixed with 350 μL of 4% paraformaldehyde (pH 7.5) for 20 min at room temperature. Cells that had migrated to the outside of the transwell insert membrane were stained with 3 ng/mL of DAPI solution (Thermo Fisher Scientific, Eugene, OR, USA), and images of five non-overlapping fields were captured using an Axiovert 200M, Carl Zeiss (Thornwood, NY, USA) microscope. The number of stained nuclei were determined with automatic counting using image analysis software (ZEN 2012 (blue edition, Version 1.1.1.0); Carl Zeiss Microscopy GmbH, Oberkochen, Germany). The results were expressed as a migration index defined as the average number of cells per field for test substance/the average number of cells per field for the medium control.

For data set [6], the system named is DU145 cells. Briefly: transwell migration assay, DU145 cells. Conditions: drug alone, AR-negative cells. In kind it is cell-based, human. The method, then:
as §5

In data set [7] the test system is LNCaP cells. The experiment in a line: transwell migration assay, LNCaP cells. Type of data set: cell-based, human. Conditions: 24 h; for effect on LNCaP cell migration (migration index): drug alone at several concentrations; for concentration of maximum induction of LNCaP cell migration: drug alone. The procedure: as §5
Data set [8] concerns Gαi2 protein. The experiment in a line: Western blot of Gαi2 protein levels in LNCaP cells. Conditions: 24 h; enzalutamide 2.5 μM, bicalutamide 2.5 μM, SBI-I-19 2 μM, SAHA 4 μM. In kind it is cell-based, human. The method, then:
Docetaxel, a taxoid anti-cancer agent, was purchased from Millipore-Sigma and dissolved in DMSO at a starting concentration of 100 μM. SAHA, a commercially available FDA-approved HDACi, was purchased from Sigma-Aldrich (St. Louis, MO, USA) and dissolved in DMSO at a starting concentration of 100 mM. SBI-I-19, an HDAC inhibitor conjugated with anti-androgen, was dissolved in DMSO at a starting concentration of 50 mM. The anti-androgen drugs enzalutamide and bicalutamide were purchased from Selleckchem (Houston, TX, USA) and Sigma-Aldrich, respectively. Anti-androgens were prepared at a stock concentration of 100 mM (enzalutamide) and 10 mM (bicalutamide) in DMSO. The Gαi2 inhibitor (compound 14) was diluted in DMSO at a stock concentration of 100 mM, as previously described. All drugs used in the study were then diluted in the culture media to the final concentrations used in various assays. To determine the effects of specific treatments on the levels of Gαi2 protein, LNCaP and PC3 cells (10^6 cells) were cultured overnight in 10 cm^2 culture dishes. The cells were then treated with anti-androgens and other agents for 24 h and the total cell lysates were collected for Western blot analyses.
Western blot analyses were performed as described previously. Briefly, cell lysates were mixed with Laemmeli’s buffer (62.5 mM Tris, pH 6.8, 2% sodium dodecyl sulfate, 5% β–mercaptoethanol and 10% glycerol). Samples (30–35 µg proteins) were separated on 10% SDS-PAGE gels and transferred to polyvinylidene difluoride (PVDF) membranes (Millipore Corp., Bedford, MA, USA). After blocking the membranes with 5% fat-free milk in TBST (50 mM Tris, pH 7.5, containing 0.15 M NaCl, and 0.05% Tween 20) for 1 h at room temperature, the membranes were incubated with specific primary antibodies at appropriate dilutions (1:5000 for Gαi2; 1:3000 for α-tubulin) overnight at 4 °C. After washing, the blots were incubated with appropriate secondary antibodies. The blots were then developed in Millipore Luminata Forte (EMD Millipore) for 5 min and visualized using a BioRad ChemiDoc Imaging System, according to the manufacturer’s instructions. The density of specific protein bands was determined using ImageJ 1.53 K image analyses software.

Data set [9] is described as follows: stability in mouse plasma. Type of data set: in vitro ADME. To be noted: read-out: Plasma t1/2, Mouse. The text has this: Table 1 Stability of compounds 6, 7 and 10 in human and mouse plasma and liver microsomes. | column: Plasma (t1/2 = Min) / Mouse
Data set [10] is described as follows: stability in human plasma. Type of data set: in vitro ADME. To be noted: read-out: Plasma t1/2, Human. The text has this: Table 1 Stability of compounds 6, 7 and 10 in human and mouse plasma and liver microsomes. | column: Plasma (t1/2 = Min) / Human
Data set [11] in a line: stability in human liver microsomes. Type of data set: in vitro ADME. To be noted: read-out: Microsome t1/2, Human. From the text: Table 1 Stability of compounds 6, 7 and 10 in human and mouse plasma and liver microsomes. | column: Microsome (t1/2 = Min) / Human
A short description of data set [12]: stability in mouse liver microsomes. To be noted: read-out: Microsome t1/2, Mouse. In kind it is in vitro ADME. From the text:
Table 1 Stability of compounds 6, 7 and 10 in human and mouse plasma and liver microsomes. | column: Microsome (t1/2 = Min) / Mouse

“And” between values parts separate entries of the source, which are not always exact repeats. Equal entries are not always repeated.

As to `Cn1c(/C=N/c2ccc(O)cc2)cc2ccccc21` [Compound 3], the 50% inhibitory concentration (IC50) in data set [1], in data set [2], in data set [3] and in data set [4] was more than 100 µM throughout. The “effect on PC3 cell migration (migration index)” value in data set [5] is on record as “concentration dependent reduction of PC3 cell migration, but less efficiently relative to 14”.

For the compound `Cn1c(CNc2ccc(O)cc2)cc2ccccc21` [Compound 5], the IC50 in data set [1], in data set [2], in data set [3] and in data set [4] was more than 100 µM in each case. For the same compound, the “effect on PC3 cell migration (migration index)” value in [5] is on record as “comparable potency”.

Consider `CNC(=O)c1ccc(N2C(=S)N(c3ccc(C#N)c(C(F)(F)F)c3)C(=O)C2(C)C)cc1F` [enzalutamide], for which the “effect of chemotherapeutic drugs on DU145 cell migration” value (from here on “effect … on DU145 cell migration”) in data set [6] is “increased cell migration”. In data set [7], the “effect on LNCaP cell migration (migration index)” value is “induced a dose-dependent increase in cell migration” and the “concentration of maximum induction of LNCaP cell migration” value (“concentration” for short) is 2.5 µM. Further, the “levels of Gαi2 protein in LNCaP cells” value in [8] is on record as “increased levels of Gαi2 protein”.

For the compound `CC(Oc1ccc(O)cc1)c1cc2ccccc2n1C` (stereo not shown) [Compound 15], the 50% inhibitory concentration (IC50) in data set [1], in [2], in data set [3] and in [4] was more than 100 µM each time. Moreover, the “effect on PC3 cell migration (migration index)” value in data set [5] is listed as “did not inhibit the migration of PC3 cells at the maximum concentration tested”.

Regarding `CC(O)(CS(=O)(=O)c1ccc(F)cc1)C(=O)Nc1ccc(C#N)c(C(F)(F)F)c1` (stereo not shown) [bicalutamide], in [7], the “effect on LNCaP cell migration (migration index)” value is given as “induced a dose-dependent increase in cell migration” and the “concentration” value amounted to 2.5 µM. Further, the “levels of Gαi2 protein in LNCaP cells” value in data set [8] is given as “increased levels of Gαi2 protein”.

For `CC(Oc1ccc([S+](C)[O-])cc1)c1cc2ccccc2n1C` (stereo not shown) [Compound 13], the concentration for half-maximal inhibition (IC50) in data set [1], in data set [2], in data set [3] and in data set [4] was more than 100 µM each time. Besides, the “effect on PC3 cell migration (migration index)” value in [5] is given as “less effective”.

On to `CSc1ccc(NC(C)c2cc3ccccc3n2C)cc1` (stereo not shown) [Compound 7], for which the half-life in [9] is more than 120 min; in data set [10], more than 120 min; in [11] it was 45 min; in data set [12], less than 10 min. Besides, the IC50 in data set [1] was more than 100 µM; in [2], 43.4 ± 3.9 µM; in data set [3], more than 100 µM; in [4], more than 100 µM. Moreover, the “PC3 cell migration in combination with SAHA or docetaxel” value (from here on “PC3 cell migration in combination”) in [5] is “decreased significantly PC3 cell migration”. For the same compound, in data set [5], the “effect on PC3 cell migration (migration index)” value was “more effective relative to 14”.

Regarding `CC(Nc1ccc(O)cc1)c1cc2ccccc2n1C` (stereo not shown) [Compound 6], the half-life in data set [9] is 27 min; in data set [10] it was more than 120 min; in data set [11], 118 min; in data set [12], 47 min. Moreover, the IC50 in data set [1] is 32.4 ± 1.6 µM; in data set [2] it was 86.8 ± 10.8 µM; in [3], 27.3 ± 4.8 µM; in [4] it was 75.7 ± 5.3 µM. For the same compound, in data set [5], the “PC3 cell migration in combination” value is reported as “decreased significantly PC3 cell migration”. Further, the “effect on PC3 cell migration (migration index)” value in data set [5] is given as “more effective relative to 14”.

On to `CSc1ccc(/N=C(\C)c2cc3ccccc3n2C)cc1` [Compound 4], for which the concentration for half-maximal inhibition (IC50) in data set [1], in [2], in [3] and in data set [4] was more than 100 µM throughout. Moreover, in data set [5], the “effect on PC3 cell migration (migration index)” value is recorded as “concentration dependent reduction of PC3 cell migration, but less efficiently relative to 14”.

In the case of `CC1(C)C(=O)N(c2ccc(C#N)c(C(F)(F)F)c2)C(=O)N1Cc1ccc(-c2cn(CCCCC(=O)NO)nn2)cc1` [SBI-I-19], the “effect … on DU145 cell migration” value in [6] was “increased cell migration”. Also, in data set [7], the “effect on LNCaP cell migration (migration index)” value is “induced a significant dose-dependent increase in cell migration”; the “concentration” value is 1 µM and 2 µM. Besides, the “levels of Gαi2 protein in LNCaP cells” value in data set [8] is “increased levels of Gαi2 protein”.

Consider `O=C(CCCCCCC(=O)Nc1ccccc1)NO` [SAHA], for which the “effect … on DU145 cell migration” value in data set [6] is given as “increased cell migration”. For the same compound, in [7], the “effect on LNCaP cell migration (migration index)” value is reported as “induced a significant dose-dependent increase in cell migration”; the “concentration” value was 0.5 µM and 1 µM. Also, the “levels of Gαi2 protein in LNCaP cells” value in [8] is recorded as “induced a reduction in the levels of Gαi2 protein”. In data set [5] (drug alone, AR-negative cells), the “effect of chemotherapeutic drugs on PC3 cell migration” value was “induced an increase in cell migration”.

In the case of `CC(Oc1ccc(S(C)(=O)=O)cc1)c1cc2ccccc2n1C` (stereo not shown) [Compound 12], the IC50 in [1], in data set [2], in data set [3] and in data set [4] was more than 100 µM each time. In addition, the “effect on PC3 cell migration (migration index)” value in [5] was “less effective”.

With `CSc1ccc(OC(C)c2cc3ccccc3n2C)cc1` (stereo not shown) [Compound 10], the half-life in data set [9] was more than 120 min; in [10] it was more than 120 min; in [11] it was 35 min; in [12], less than 10 min. The IC50 in [1], in data set [2], in data set [3] and in data set [4] was more than 100 µM throughout. Moreover, the “PC3 cell migration in combination” value in data set [5] is recorded as “decreased significantly PC3 cell migration”. Moreover, the “effect on PC3 cell migration (migration index)” value in [5] is on record as “less potent compared to 7”.
